These results are taken from US20260159474A1, “Aminoindane Compounds and Compositions and Methods of Their Therapeutic Use” (Solvonis Therapeutics Ireland Holdings Limited, priority 2021, published 2026).

SMILES strings stand for the structures. Where “and” joins values, the source holds several entries; their conditions need not be identical. Equal entries are not always repeated. Bounds are passed on as bounds.

For one experiment, the target named is T1, human DAT (Homo sapiens, UniProt Q01959).
T1 construct: expressed in transfected cells; host or cells: CHO (hDAT-CHO)
As to the kind of experiment: DAT uptake SPA in hDAT-CHO cells. The class given is cell-based. Particulars: [3H]-dopamine uptake, hDAT-CHO cells; read-out: DAT Uptake SPA (pIC50) (converted).

The target of another experiment is T2, hSERT (Homo sapiens, UniProt P31645).
T2 construct: expressed in transfected cells; host or cells: CHO (hSERT-CHO)
Nature of the experiment: SERT uptake SPA in hSERT-CHO cells. Particulars: for IC50: [3H]-serotonin uptake, hSERT-CHO cells, read-out: SERT Uptake SPA (pIC50) (converted). In kind it is cell-based.

Experiment [1] deals with DA release in rat synaptosomes. Nature of the experiment: Dopamine release assay in rat striatal synaptosomes. In kind it is biochemical. Particulars: % of maximal release with 50 μM MDMA, n=2. On the procedure: (§1) Methods-Evaluation of Monoamine Release: The potency of therapeutic compounds for stimulating DA release was measured by an endpoint release filtration assay in a 96-well format using rat synaptosomes, essentially as described by Sandtner et al. (Mol Pharmacol., 2016; 89(1):165-75.) and Baumann et al. (Neuropsychopharmacol, 2013; 38:552-562.) with some variations. One male rat was euthanized, and striatum/cortex regions were dissected over ice. The striatum portions were weighed and put in a glass tube containing ice-cold 0.32 M sucrose (dilution 1:24 w/v) for homogenization, while the frontal cortex tissue was diluted in ice-cold 0.32 M sucrose, 1:20 w/v. Tissues were homogenized and centrifuged for 10 mins at 1000×g. The two supernatants from striatum and cortex (crude synaptosomes) were retained on ice until use.
(§2) Test compounds were then serially diluted 1:4 in neat DMSO as concentration-response curves (CRC) of 11 points. To each well of a 2-mL 96 deep-well plate (Whatman UNIPLATE 96 well) were added: 2 μL of a concentration-response curve (CRC) of test compounds or 2 μL of DMSO (no-release condition) or 2 μL of MDMA 10 mM solution (final 50 μM, for maximal release), followed by 200 μL/well of complete Krebs-phosphate buffer (126 mM NaCl, 2.4 mM KCl, 0.83 mM CaCl2), 0.8 mM MgCl2, 0.5 mM KH2PO4, 0.5 mM Na2SO4, 11.1 mM glucose, 0.05 mM pargyline, 1 mg/mL ascorbic acid, freshly added, pH 7.4), containing 1 μM reserpine to block vesicular uptake of substrate. Desipramine (100 nM) and citalopram (100 nM) were also added to the release assay buffer in order to inhibit NET and SERT uptake, respectively. The final compound dilution, then, was 1:200 in 0.5% DMSO.
3H-Dopamine was added to the tube containing the crude striatal synaptosomes preparation, diluted 1:20 (v/v) in complete Krebs-phosphate buffer, and was incubated at RT and gently mixed for 60 minutes. Then, 200 μL/well of 3H-DA loaded synaptosomes were dispensed to the compound plate (final 400 μL/well), and the release reaction proceeded for an additional 15 minutes at RT. The release was terminated by vacuum filtration and washing three times with 1 mL of saline solution (NaCl 0.9%) at RT. The retained radioactivity was counted in a scintillation counter after the addition of 50 μL/well Microscint-20.
(§3) The raw data (cpm) from residual radioactivity onto the filter were elaborated for the determination of pEC50/EC50 values. Specifically, the compound effect was expressed as the percent of maximal release obtained with 50 μM MDMA (100% release) in comparison to vehicle (0.5% DMSO, 0% release). Both MDMA and D-amphetamine in CRC were used as internal controls in each release experiment. In each plate, for both 0% and 100% of release, the signal window was monitored and Z′ calculations were determined using the raw data of four replicates. 5-HT release was calculated in an identical fashion, except that 5 nM 3H-serotonin was added to crude cortex synaptosomes preparation diluted 1:13 (v/v) in complete Krebs-phosphate buffer containing 1 μM Reserpine, 100 nM GBR12909 and 100 nM nomifensine to block vesicular, DAT, and NET uptake, respectively. Synaptosomes were then loaded with 3H-5HT for 60 minutes at RT. After dispensing loaded synaptosomes onto a compound plate (200 μL/well), the release reaction proceeded for an additional 15 minutes. Stop by filtration, counting, and data elaboration were performed as described for DA release. Compounds were tested in duplicate (n=2).

In experiment [2] the test system is 5-HT release in rat synaptosomes. As to the kind of experiment: Serotonin release assay in rat cortex synaptosomes. The note with it: for 5-HT Release (pEC50): rat cortex synaptosomes, % of maximal release with 50 μM MDMA, n=2; for SERT/DAT Release Ratio: ratio of 5-HT and DA release potency, rat synaptosomes. The class given is biochemical. As for the experimental part: as §1, §2, §3

A further experiment relates to DAT/SERT. The note with it: Simmler et al., Br J Pharmacol. 2013; cited from earlier work.

T2 sequence (P31645 whole entry): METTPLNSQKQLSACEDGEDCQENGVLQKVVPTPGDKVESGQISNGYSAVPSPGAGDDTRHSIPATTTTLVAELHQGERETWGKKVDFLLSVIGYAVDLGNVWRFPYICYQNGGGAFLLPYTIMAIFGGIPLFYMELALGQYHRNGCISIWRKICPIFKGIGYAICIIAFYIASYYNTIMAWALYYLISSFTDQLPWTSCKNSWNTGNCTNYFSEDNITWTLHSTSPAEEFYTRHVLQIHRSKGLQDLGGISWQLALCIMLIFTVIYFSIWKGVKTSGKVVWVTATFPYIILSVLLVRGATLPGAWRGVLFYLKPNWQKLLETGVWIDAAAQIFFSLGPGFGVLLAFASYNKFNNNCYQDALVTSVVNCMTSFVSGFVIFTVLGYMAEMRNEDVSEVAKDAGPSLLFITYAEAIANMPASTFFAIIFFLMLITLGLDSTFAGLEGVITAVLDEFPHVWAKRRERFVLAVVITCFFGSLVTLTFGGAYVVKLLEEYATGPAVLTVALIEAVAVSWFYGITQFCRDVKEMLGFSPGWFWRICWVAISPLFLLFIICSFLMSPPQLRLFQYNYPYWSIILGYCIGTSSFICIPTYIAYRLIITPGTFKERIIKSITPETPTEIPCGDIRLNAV
T1 sequence (Q01959 whole entry): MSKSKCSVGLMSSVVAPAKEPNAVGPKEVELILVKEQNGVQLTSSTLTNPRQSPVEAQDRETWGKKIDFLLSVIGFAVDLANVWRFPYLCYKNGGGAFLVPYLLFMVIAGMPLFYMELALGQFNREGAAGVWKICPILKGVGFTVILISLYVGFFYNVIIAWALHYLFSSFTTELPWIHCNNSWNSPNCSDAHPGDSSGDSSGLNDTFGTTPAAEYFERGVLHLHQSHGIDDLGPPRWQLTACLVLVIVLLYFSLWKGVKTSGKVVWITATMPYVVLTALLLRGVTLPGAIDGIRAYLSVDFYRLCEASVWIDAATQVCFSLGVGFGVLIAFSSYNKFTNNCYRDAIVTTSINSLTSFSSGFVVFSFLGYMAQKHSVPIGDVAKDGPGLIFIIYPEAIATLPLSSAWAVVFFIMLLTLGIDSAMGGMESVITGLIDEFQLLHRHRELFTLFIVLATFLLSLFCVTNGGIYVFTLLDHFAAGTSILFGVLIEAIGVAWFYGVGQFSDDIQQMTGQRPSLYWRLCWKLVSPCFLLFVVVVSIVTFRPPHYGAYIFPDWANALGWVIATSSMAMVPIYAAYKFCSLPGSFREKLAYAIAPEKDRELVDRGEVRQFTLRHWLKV
Procedure for hSERT: (§4) Briefly, on experiment days, hDAT-CHO cells were detached using Versene and added at a density of approximately 300,000 cells/mL to the SPA Mixture, which contains the following components in Assay Buffer (20 mM HEPES, 145 mM NaCl, 5 mM KCl, 2 mM CaCl2), 1 mM MgCl2, 5.5 mM glucose, 0.01% Pluronic F127, pH 7.3): 0.75 mg/mL SPA Imaging beads (RPNQ0001, PerkinElmer), 10 μM pargyline and 80 nM of [3H]-dopamine (NET673, PerkinEImer). The SPA Mixture was added 20 μL/well to 384 well plates containing 0.1 μL/well of test compound in neat DMSO (11 points of 1:5 serial dilution, 0.5% DMSO final) or 0.1 μL of DMSO (total uptake) or 0.1 μL of the standard inhibitor indatraline (at 1 μM final concentration, as nonspecific uptake). Plates were sealed with a Top-seal A and read using a Microbeta counter (PerkinElmer) after 45 minutes of incubation at room temperature. […] The SPA Mixture was added 20 μL/well to 384 well plates containing 0.1 μL/well of test compound in neat DMSO (11 points of 1:5 serial dilution, 0.5% DMSO final), 0.1 μL of DMSO (total uptake), or 0.1 μL of the standard inhibitor indatraline (1 μM, nonspecific uptake). Plates were sealed with a Top-seal A and read using a Microbeta counter (PerkinElmer) after 120 minutes of incubation at room temperature.
For both tests, the raw experimental data (cpm) were elaborated for the determination of pIC50/IC50 values as % inhibition of specific uptake. Concentration-response curves of MDMA, MDDMA, citalopram and GBR-12909 were used as internal standards in all experiments, and the signal window was monitored in each plate performing Z′ calculations, as described in Zhang et al., J Biomol Screen.
Procedure for human DAT: Methods-Evaluation of Monoamine Uptake/Transporter Inhibition: Inhibitory activity on DAT function was measured using an uptake assay in a recombinant CHO cell line stably expressing human DAT (hDAT-CHO). Potency was measured in terms of pIC50 by testing for inhibition of [3H]-dopamine uptake in hDAT-CHO cells in a multiwell format SPA.
as §4
For both tests, the raw experimental data (cpm) were elaborated for the determination of pIC50/IC50 values as % inhibition of specific uptake.

For `COC(=O)Cc1ccc2c(c1)CC(N)C2` (centres unmarked) [CMP-406], the results for the IC50 on human DAT and on hSERT were more than 100 µM and 63.1 µM, respectively. Besides, on hSERT (calculated as 1/SERT IC50:1/DAT IC50), the “SERT/DAT Uptake Ratio” value is reported as more than 1.6. In addition, in experiment [1], the “DA Release (pEC50)” value was less than 4.0. Also, the “5-HT Release (pEC50)” value in experiment [2] is 4.3. Further, in experiment [2], the “SERT/DAT Release Ratio” value was more than 2.0.
For `COC(=O)CCc1ccc2c(c1)CC(N)C2` (centres unmarked) [CMP-407], the IC50 at human DAT was 63.1 µM. Further, the IC50 at hSERT was 25.1 µM. Moreover, the “DA Release (pEC50)” value in experiment [1] was 4.6. Further, in experiment [2], the “5-HT Release (pEC50)” value is less than 4.0 and the “SERT/DAT Release Ratio” value is given as less than 0.25.
For `COC(=O)Cc1cc2c(cc1OC)CC(N)C2` (centres unmarked) [CMP-408] the same measures were 100 µM, 39.8 µM, less than 4.0, 4.6 and 3.9.
Consider `CN[C@@H](C)Cc1ccccc1` [methamphetamine], for which, in the experiment with DAT/SERT, the DAT/SERT ratio is > 10 and 10.
